From US10526332B2, “Imidazo-pyrimidone compounds, and preparation method and application thereof” (Nanjing Gator Meditech Company, Ltd., priority 2015, dated 2020)

Legend:
[1] = tested on: MDA-MB-231; test: MTS cell proliferation test, MDA-MB-231; conditions: Homo sapiens, MDA-MB-231, 72 h, read-out: MDA231 IC50 (Mean ± SD);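 further: cells settled 24 h before compound addition, MTS absorbance at 490 nm, survival as percent of untreated cells after blank subtraction, IC50 fitted from survival versus concentration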
Protocol: (§1) The disclosed compounds and their pharmaceutically accepted salts are assayed for their anti-cancer activities by the following method. • MTS Cell Proliferation Test 1. Materials 1.1. […] Cell Lines
(§2) Two cell lines were used, both HCT116 and MDA-MB-231 were purchased from USATCC.
(§3) MTS reagent powder was purchased from Promega. Cat #G1111; PMS from Sigma, Cat #P8625; cell culture medium RPMI-1640, Cat #10040562R; DMEM, Cat #0013CVR; 100× sodium pyruvate solution Cat #136007; 100× Penicillin Streptomycin Solution, Cat ⊇15140122; 100× Penicillin Streptomycin Solution, Cat #15140122; 0.25% Trypsin (Parenzyme), Cat #25200-072; and fetal bovine serum, Cat #16000-044 were all purchased from Life Technologies.
(§4) • Thermo incubator (Format 371); • Heat force Biosafety Cabinet (HF sage 1500); • BioTek Microplate Reader (Synergy 2). 2. […] 2.3 Procedure of MTS Methods:
(§5) Cells at logarithmic phase were harvested, then digested with 0.25% trypsin, and re-suspense in complete growth medium. 150 uL/well of HCT-116 and MDA-MB-231 were dispensed into 96 well culture plates with 2.5×10^3 cell/well. The plates were pre-incubated in a humidified CO2 incubator at 37° C., 5% CO2) for 24 hours. 50 uL of various concentration of test compounds and reference compound were added. A negative control (only cells and culture medium without compound) and blank control (only culture medium without cells) were set at the same time. The plates were incubated for 72 hr in the incubator. The MTS/PMS solution was prepared and added into 96 well plates according to the test instruction by Promega Corporation. The plates were incubated again for some time, then the absorbance at 490 nm were measured using Biotek Instruments, Inc microplate reader and the cell survival rates calculated. Cell Survival Rate(%)=(At−Ab)/(Ac−Ab)×100% where, • At=Absorbance value of test compound • Ab=Absorbance value of blank • Ac=Absorbance value of control 3. Results

[2] = tested on: HCT116; test: MTS cell proliferation test, HCT116; conditions: Homo sapiens, HCT-116, 72 h, read-out: HCT116 IC50 (Mean ± SD);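 further: absorbance at 490 nm after MTS/PMS addition, survival relative to untreated cells (100%) after blank subtraction, IC50 from the concentration–survival curve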
Protocol: as §1, §2, §3, §4, §5

IC50 [1]	IC50 [2]	Structure (SMILES)
0.24 µM	0.23 ± 0.004 µM	Cc1cccc(CN2C(=O)C3=C(CCN(Cc4ccccc4)C3)N3CCN=C23)c1 [Compound I-2, 7-benzyl-4-(3-methylbenzyl)-1,2,6,7,8,9-hexahydroimidazo[1,2-a]pyrido[3,4-e]pyrimidin-5(4H)-one]
0.07 ± 0.003 µM	0.06 ± 0.006 µM	O=C1C2=C(CCN(Cc3ccccc3)C2)N2CCN=C2N1Cc1ccc(Cl)cc1 [Compound I-3, 7-benzyl-4-(4-chlorobenzyl)-1,2,6,7,8,9-hexahydroimidazo[1,2-a]pyrido[3,4-e]pyrimidin-5(4H)-one]
1.17 ± 0.178 µM	1.36 ± 0.023 µM	O=C1C2=C(CCN(Cc3ccccc3)C2)N2CCN=C2N1Cc1ccccc1C(F)(F)F [Compound I-4, 7-benzyl-4-(2-(trifluoromethyl)benzyl)-1,2,6,7,8,9-hexahydroimidazo[1,2-a]pyrido[3,4-e]pyrimidin-5(4H)-one]
6.81 ± 0.057 µM	5.96 ± 1.35 µM	O=C1C2=C(CCN(Cc3ccccc3)C2)N2CCN=C2N1Cc1ccccc1Br [Compound I-5, 7-benzyl-4-(2-bromobenzyl)-1,2,6,7,8,9-hexahydroimidazo[1,2-a]pyrido[3,4-e]pyrimidin-5(4H)-one]
4.45 ± 0.356 µM	4.16 ± 1.51 µM	Cc1ccccc1CN1C(=O)C2=C(CCN(Cc3ccc(C(F)(F)F)cc3)C2)N2CCN=C12 [Compound I-6, 4-(2-methylbenzyl)-7-(4-(trifluoromethyl)benzyl)-1,2,6,7,8,9-hexahydroimidazo[1,2-a]pyrido[3,4-e]pyrimidin-5(4H)-one]
1.88 ± 0.078 µM	2.09 ± 0.092 µM	COc1ccc(CN2CCC3=C(C2)C(=O)N(Cc2ccccc2C)C2=NCCN23)cc1 [Compound I-7, 7-(4-methoxybenzyl)-4-(2-methylbenzyl)-1,2,6,7,8,9-hexahydroimidazo[1,2-a]pyrido[3,4-e]pyrimidin-5(4H)-one]
1.82 ± 0.241 µM	1.77 ± 0.23 µM	Cc1ccccc1CN1C(=O)C2=C(CCN(Cc3ccc(N4CCOCC4)cc3)C2)N2CCN=C12 [Compound I-8, 4-(2-methylbenzyl)-7-(4-morpholinobenzyl)-1,2,6,7,8,9-hexahydroimidazo[1,2-a]pyrido[3,4-e]pyrimidin-5(4H)-one]
0.74 µM	0.71 ± 0.001 µM	Cc1ccccc1CN1C(=O)C2=C(CCN(Cc3cccc(C(F)(F)F)c3)C2)N2CCN=C12 [Compound I-9, 4-(2-methylbenzyl)-7-(3-(trifluoromethyl)benzyl)-1,2,6,7,8,9-hexahydroimidazo[1,2-a]pyrido[3,4-e]pyrimidin-5(4H)-one]
2.19 ± 0.027 µM	2.09 ± 0.016 µM	Cc1ccccc1CN1C(=O)C2=C(CCN(Cc3ccc(N4CCN(C)CC4)cc3)C2)N2CCN=C12 [Compound I-10, 4-(2-methylbenzyl)-7-(4-(4-methylpiperazin-1-yl)benzyl)-1,2,6,7,8,9-hexahydroimidazo[1,2-a]pyrido[3,4-e]pyrimidin-5(4H)-one]
2.18 ± 0.02 µM	1.99 ± 0.041 µM	O=C1C2=C(CCN(Cc3ccccc3F)C2)N2CCN=C2N1Cc1ccccc1F [Compound I-11, 4,7-bis(2-fluorobenzyl)-1,2,6,7,8,9-hexahydroimidazo[1,2-a]pyrido[3,4-e]pyrimidin-5(4H)-one]
2.07 ± 0.001 µM	2.04 ± 0.029 µM	O=C1C2=C(CCN(Cc3ccccc3F)C2)N2CCN=C2N1Cc1ccccc1C(F)(F)F [Compound I-12, 7-(2-fluorobenzyl)-4-(2-(trifluoromethyl)benzyl)-1,2,6,7,8,9-hexahydroimidazo[1,2-a]pyrido[3,4-e]pyrimidin-5(4H)-one]
1.94 ± 0.277 µM	1.77 ± 0.072 µM	O=C1C2=C(CCN(Cc3ccccc3F)C2)N2CCN=C2N1Cc1ccccc1Cl [Compound I-13, 4-(2-chlorobenzyl)-7-(2-fluorobenzyl)-1,2,6,7,8,9-hexahydroimidazo[1,2-a]pyrido[3,4-e]pyrimidin-5(4H)-one]
2.08 ± 0.024 µM	1.45 ± 0.155 µM	O=C1C2=C(CCN(Cc3ccccc3F)C2)N2CCN=C2N1Cc1ccccc1Br [Compound I-14, 4-(2-bromobenzyl)-7-(2-fluorobenzyl)-1,2,6,7,8,9-hexahydroimidazo[1,2-a]pyrido[3,4-e]pyrimidin-5(4H)-one]
0.73 ± 0.004 µM	0.68 ± 0.003 µM	Cc1ccccc1CN1C(=O)C2=C(CCN(Cc3ccccc3F)C2)N2CCN=C12 [Compound I-15, 7-(2-fluorobenzyl)-4-(2-methylbenzyl)-1,2,6,7,8,9-hexahydroimidazo[1,2-a]pyrido[3,4-e]pyrimidin-5(4H)-one]
3.07 ± 0.752 µM	2.16 ± 0.013 µM	O=C1C2=C(CCN(Cc3ccccc3Br)C2)N2CCN=C2N1Cc1ccccc1F [Compound I-16, 7-(2-bromobenzyl)-4-(2-fluorobenzyl)-1,2,6,7,8,9-hexahydroimidazo[1,2-a]pyrido[3,4-e]pyrimidin-5(4H)-one]
2.14 ± 0.031 µM	2.02 ± 0.022 µM	O=C1C2=C(CCN(Cc3ccccc3Br)C2)N2CCN=C2N1Cc1ccccc1C(F)(F)F [Compound I-17, 7-(2-bromobenzyl)-4-(2-(trifluoromethyl)benzyl)-1,2,6,7,8,9-hexahydroimidazo[1,2-a]pyrido[3,4-e]pyrimidin-5(4H)-one]

IC50 [1]	IC50 [2]	Structure (SMILES)
–	2.15 ± 0.022 µM	O=C1C2=C(CCN(Cc3ccccc3Br)C2)N2CCN=C2N1Cc1ccccc1Cl [Compound I-18, 7-(2-bromobenzyl)-4-(2-chlorobenzyl)-1,2,6,7,8,9-hexahydroimidazo[1,2-a]pyrido[3,4-e]pyrimidin-5(4H)-one]
3.67 ± 0.036 µM	2.22 ± 0.007 µM	O=C1C2=C(CCN(Cc3ccccc3Br)C2)N2CCN=C2N1Cc1ccccc1Br [Compound I-19, 4,7-bis(2-bromobenzyl)-1,2,6,7,8,9-hexahydroimidazo[1,2-a]pyrido[3,4-e]pyrimidin-5(4H)-one]
27.1 ± 3.24 µM	27.5 ± 3.35 µM	Cc1ccccc1CN1C(=O)C2=C(CCN(Cc3ccccc3Br)C2)N2CCN=C12 [Compound I-20, 7-(2-bromobenzyl)-4-(2-methylbenzyl)-1,2,6,7,8,9-hexahydroimidazo[1,2-a]pyrido[3,4-e]pyrimidin-5(4H)-one]
2.15 ± 0.034 µM	2.12 ± 0.039 µM	Cc1ccccc1CN1CCC2=C(C1)C(=O)N(Cc1ccccc1F)C1=NCCN12 [Compound I-21, 4-(2-fluorobenzyl)-7-(2-methylbenzyl)-1,2,6,7,8,9-hexahydroimidazo[1,2-a]pyrido[3,4-e]pyrimidin-5(4H)-one]
2.13 ± 0.008 µM	2.03 ± 0.009 µM	Cc1ccccc1CN1CCC2=C(C1)C(=O)N(Cc1ccccc1C(F)(F)F)C1=NCCN12 [Compound I-22, 7-(2-methylbenzyl)-4-(2-(trifluoromethyl)benzyl)-1,2,6,7,8,9-hexahydroimidazo[1,2-a]pyrido[3,4-e]pyrimidin-5(4H)-one]
2.14 ± 0.025 µM	2 ± 0.026 µM	O=C1C2=C(CCN(Cc3ccccc3Cl)C2)N2CCN=C2N1Cc1ccccc1F [Compound I-23, 7-(2-chlorobenzyl)-4-(2-fluorobenzyl)-1,2,6,7,8,9-hexahydroimidazo[1,2-a]pyrido[3,4-e]pyrimidin-5(4H)-one]
1.99 ± 0.039 µM	2.09 ± 0.041 µM	O=C1C2=C(CCN(Cc3ccccc3Cl)C2)N2CCN=C2N1Cc1ccccc1C(F)(F)F [Compound I-24, 7-(2-chlorobenzyl)-4-(2-(trifluoromethyl)benzyl)-1,2,6,7,8,9-hexahydroimidazo[1,2-a]pyrido[3,4-e]pyrimidin-5(4H)-one]
1.31 ± 0.154 µM	1.95 ± 0.064 µM	O=C1C2=C(CCN(Cc3ccccc3Cl)C2)N2CCN=C2N1Cc1ccccc1Cl [Compound I-25, 4,7-bis(2-chlorobenzyl)-1,2,6,7,8,9-hexahydroimidazo[1,2-a]pyrido[3,4-e]pyrimidin-5(4H)-one]
2.08 ± 0.067 µM	1.5 ± 0.394 µM	O=C1C2=C(CCN(Cc3ccccc3Cl)C2)N2CCN=C2N1Cc1ccccc1Br [Compound I-26, 4-(2-bromobenzyl)-7-(2-chlorobenzyl)-1,2,6,7,8,9-hexahydroimidazo[1,2-a]pyrido[3,4-e]pyrimidin-5(4H)-one]
2.26 ± 0.018 µM	2.13 ± 0.045 µM	Cc1ccccc1CN1C(=O)C2=C(CCN(Cc3ccccc3Cl)C2)N2CCN=C12 [Compound I-27, 7-(2-chlorobenzyl)-4-(2-methylbenzyl)-1,2,6,7,8,9-hexahydroimidazo[1,2-a]pyrido[3,4-e]pyrimidin-5(4H)-one]
2.22 ± 0.029 µM	2.2 ± 0.017 µM	O=C1C2=C(CCN(Cc3cccc(Br)c3)C2)N2CCN=C2N1Cc1ccccc1Cl [Compound I-28, 7-(3-bromobenzyl)-4-(2-chlorobenzyl)-1,2,6,7,8,9-hexahydroimidazo[1,2-a]pyrido[3,4-e]pyrimidin-5(4H)-one]
0.74 ± 0.002 µM	0.72 ± 0.001 µM	Cc1ccccc1CN1C(=O)C2=C(CCN(Cc3cccc(Br)c3)C2)N2CCN=C12 [Compound I-29, 7-(3-bromobenzyl)-4-(2-methylbenzyl)-1,2,6,7,8,9-hexahydroimidazo[1,2-a]pyrido[3,4-e]pyrimidin-5(4H)-one]
2.13 ± 0.005 µM	2.07 ± 0.062 µM	Cc1cccc(CN2CCC3=C(C2)C(=O)N(Cc2ccccc2F)C2=NCCN23)c1 [Compound I-30, 4-(2-fluorobenzyl)-7-(3-methylbenzyl)-1,2,6,7,8,9-hexahydroimidazo[1,2-a]pyrido[3,4-e]pyrimidin-5(4H)-one]
1.65 ± 0.05 µM	1.25 ± 0.122 µM	Cc1cccc(CN2CCC3=C(C2)C(=O)N(Cc2ccccc2C(F)(F)F)C2=NCCN23)c1 [Compound I-31, 7-(3-methylbenzyl)-4-(2-(trifluoromethyl)benzyl)-1,2,6,7,8,9-hexahydroimidazo[1,2-a]pyrido[3,4-e]pyrimidin-5(4H)-one]
0.74 ± 0.001 µM	0.77 ± 0.048 µM	Cc1cccc(CN2CCC3=C(C2)C(=O)N(Cc2ccccc2Cl)C2=NCCN23)c1 [Compound I-32, 4-(2-chlorobenzyl)-7-(3-methylbenzyl)-1,2,6,7,8,9-hexahydroimidazo[1,2-a]pyrido[3,4-e]pyrimidin-5(4H)-one]

Structure (SMILES)	IC50 [1]	IC50 [2]
O=C1C2=C(CCN(Cc3ccccc3)C2)N2CCN=C2N1Cc1cccc(Cl)c1 [Compound I-1, 7-Benzyl-4-(3-chlorobenzyl)-1,2,6,7,8,9-hexahydroimidazo[1,2-a]pyrido[3,4-e]pyrimidin-5(4H)-one]	0.24 µM	0.23 ± 0.009 µM
